Values quoted from earlier work, collected in patent US10588873B2, “Topical antifungal compositions” (Exodos Life Sciences LP, priority 2015, dated 2020).

Conditions: only or first printed pKa

## CCCCCC(=O)O [caproic (hexanoic) acid]
  pKa: 4.88

## CC(=O)CCC(=O)O [levulinic acid]
  pKa: 4.6
